Literature values, collected in US20050148589A1, “Compositions of a cyclooxygenase-2 selective inhibitor and a neurotrophic factor-modulating agent for the treatment of central nervous system mediated disorders” (Pharmacia & Upjohn Company LLC, priority 2003, published 2005).

Tests used:
[1] = test system: brain damage due to neuroexcitotoxins; conditions: in vivo
[2] = test system: animal models of cognitive decline, aging, neuroprotection, and spinal cord injury; conditions: pre-clinical studies
[3] = test system: mRNA levels of various neurotrophic factors, including nerve growth factor (NGF), transforming growth factor (beta), and S100B in the central nervous system; conditions: treatment with Neotrofin

Row | Compound | prevention of brain damage due to neuroexcitotoxins [1] | restoration of function in animal models [2] | mRNA levels of neurotrophic factors (NGF, TGF beta, S100B) in the central nervous system [3]
1 | O=C(CCn1cnc2c(=O)[nH]cnc21)Nc1ccc(C(=O)[O-])cc1.[K+] [Leteprinim potassium] | shown to prevent brain damage due to neuroexcitotoxins | restores function in animal models of cognitive decline, aging, neuroprotection, and spinal cord injury | 
2 | O=C(CCn1cnc2c(=O)[nH]cnc21)Nc1ccc(C(=O)[O-])cc1.[K+] [Neotrofin] |  |  | elevated the mRNA levels of various neurotrophic factors
